Data set [1] has as its system MCF7 breast cancer cell line. Briefly: SRB cytotoxicity assay. The class given is cell-based, human. As to conditions: MCF7, SRB, 72 h, read-out: IC50 ± SEM MCF7. On the procedure: (§1) The compounds were screened for their anticancer activities against a variety of cancer cell lines. The cytotoxic effect of the compounds was evaluated using the sulforhodamine B (SRB) cytotoxicity assay for breast cancer line (MCF7) and prostate cancer cell line (PC3) ([Vichai and Kirtikara, 2006]; [Rana et al., 2021]) and 3-(4,5-dimethylthiazol-2-yl)-2,5-diphenyl-2H-tetrazolium bromide (MTT) assay for the colon cancer (HCT116) cell lines ([El-Huneidi et al., 2020]). The CellTiter-Blue® cell viability assay was performed on the various leukemia cell lines, HL60, NB4, and KG1a cells ([Akter et al., 2019]). The IC50 values are illustrated in Table 1.
(§2) MCF7 (breast), PC3 (prostate), and HCT116 (colon) cancer cell lines were obtained from ATCC, Manassas, VA, USA. Cells were grown in Roswell Park Memorial Institute-1640 (RPMI-1640) medium (Thermo Fisher Scientific, Inc., Waltham, MA, USA), supplemented with 10% heat inactivated fetal bovine serum (FBS), 50 units/mL of penicillin, and […] of streptomycin and maintained at 37°C in a humidified atmosphere containing 5% CO2. The cells were maintained as “monolayer culture” by serial subculturing.
(§3) Exponentially growing MCF7 and PC3 cells were collected using 0.25% Trypsin-EDTA and were then seeded in 96-well plates at a density of 1,000–2,000 cells/well in 10% FBS and penicillin/streptomycin supplemented RPMI-1640 medium. After 24 h, the cells were treated with different concentrations of the test compounds and incubated for 72 h at 37°C in a humidified atmosphere containing 5% CO2. Next, the cells were fixed by trichloroacetic acid (TCA) (10% final concentration in wells) directly to the wells and incubated for 1 h at 4°C, then the cells were washed with distilled water five times to remove excess TCA, media, serum proteins, and metabolites, followed by air drying. After that, the fixed cells were stained with 0.4% SRB dissolved in 1% acetic acid for 10 min at room temperature, and excess stain was removed by quickly rinsing with 1% acetic acid. The residual acetic acid was removed completely by air drying the plates for 24 h, and the dye was solubilized with Tris buffer (pH = 7.4, 10 mM) for 5 min on a shaker at 1,600 rpm. The optical density of each well was measured spectrophotometrically at 564 nm with an ELISA microplate reader (ChroMate-4300, FL, USA). The IC50 values were calculated according to the equation for Boltzman sigmoidal concentration–response curve using the nonlinear regression fitting models (GraphPad®, Prism Version 5).

Data set [2] relates to PC3 prostate cancer cell line. Briefly: SRB cytotoxicity assay. The data set is classed as cell-based, human. As to conditions: 72 h, read-out: IC50 ± SEM PC3. As to the method:
as §1, §2, §3

The test system of another data set is HL60 cells. Briefly: Apoptosis detection by caspase-3 activity. The class given is cell-based, human. Conditions: HL60, 1 μM, 48 h. An excerpt: The activated caspase-3 is a marker for cell apoptosis that proteolytically cleaves and activates other caspases and intracellular targets ([Patel et al., 1996]). Caspase-3, which is activated during the early stages of apoptosis, could be measured in HL60 cells undergoing apoptosis by using fluorescein isothiocyanate (FITC)–conjugated active caspase-3 antibody.
FITC conjugated active caspase-3 antibody (BD biosciences, USA) was used to detect the active form of caspase-3 in the cells undergoing apoptosis. Cells were plated in a 6-well culture plate at a density of 0.5 × 10^6 cells and harvested after 24 and 48 h of incubation with the test compound. The collected cells were washed twice with cold 1X PBS and then resuspended in 0.5 ml of BD Cytofix/Cytoperm solution followed by a 20-min incubation on ice. After incubation, the cells were washed twice in a BD Perm/Wash buffer (1X) and were labelled with 5 µL of FITC rabbit anti-caspase-3 antibodies. The labelled cells were washed again with wash buffer and resuspended in 0.5 ml of buffer and analyzed by acquiring a minimum of 5,000 events on the FACSAria III cell analyzer and sorter.

Data set [3] can be described thus: Reactivity with GSH (LC/MS). The class given is physicochemical. Conditions: 37°C. An excerpt: Because KIM-161 contains α,β-enone moiety, it was investigated for its reactivity with glutathione (GSH), an important cellular component for maintaining the desired redox balance ([Aquilano et al., 2014]).
GSH and solvents were purchased from Sigma-Aldrich. The LC/MS system is composed of an Agilent 1200 HPLC system, a solvent delivery module, a quaternary pump, an autosampler, and a column compartment (Agilent Technology, Germany). The column effluent was connected to an Agilent 6320 Ion Trap-ESI-MS. The column heater was set to 25 ± 2°C. The control of the HPLC system and data processing were performed using ChemStation (Rev. B.01.03 SR2-204) and 6300 Series Trap Control version 6.2 Build No. 62.24 (Bruker Daltonik GmbH). The analytes were separated using an Agilent Zorbax Extend-C18 column (80Å, 150 mm length × 4.6 mm, i.d., 5 μm) and Agilent-Zorbax Extend-C18 pre-column (Agilent Technologies, Palo Alto, CA, USA). The general MS adjustments were set as follows: capillary voltage, 4000 V; nebulizer, 35 psi; drying gas, 12 L/min; desolvation temperature, 350°C; ion charge control smart target, 150,000; and max. accumulation time, 150 ms. The Auto-MSn positive mode was applied. The mobile system was isocratic elution using 55% acetonitrile and 45% water containing 0.1% formic acid (w/v). […]

“Also recorded” adds a separate entry of the source. Where two headings read alike, the source gives them in different places.

As to `COc1ccc(/C=C2\N=C(C)N(c3ccc(CC(=O)NCc4ccccc4)cc3)C2=O)cc1` [Compound 4c, (Z)-N-Benzyl-2-(4-(4-(4-methoxybenzylidene)-2-methyl-5-oxo-4,5-dihydro-1H-imidazol-1-yl)phenyl)acetamide], the IC50 in data set [1] (Homo sapiens, MCF7, 72 h) came out at 1140 nM; in data set [1] it was 1140 ± 190 nM; in data set [2] it was 2140 ± 340 nM; in data set [2] (Homo sapiens), 2130 nM. Moreover, the “Casp3 active %P” value with HL60 cells stood at 49.94%. Further, in the data set with HL60 cells, the “increase in the cells undergoing apoptosis (active caspase-3) vs untreated” value is given as ~10 fold. In addition, the “Reactivity with GSH” value in data set [3] (pH 7.5, up to 48 h, LC/MS, listed as KIM-161) was “did not show any significant reaction with GSH; also recorded: could not react with GSH; also recorded: No reaction”. Besides, in data set [3] (after 48 h with GSH), the “unreacted compound (UV spectrum)” value is on record as > 98%.

The record behind these values is paper PMC8766756, “Insights on Cancer Cell Inhibition, Subcellular Activities, and Kinase Profile of Phenylacetamides Pending 1H-Imidazol-5-One Variants” (Frontiers in Pharmacology, 2022).
